Measured values published in publication PMC11302729, “Repurposing Hsp90 inhibitors as antimicrobials targeting two-component systems identifies compounds leading to loss of bacterial membrane integrity” (Microbiology Spectrum, 2024).

Tests used:
Hsp90α = target: T1, Hsp90α (Homo sapiens, UniProt P07900); test: Hsp90 fluorescence polarization assay (displacement of FITC-labeled geldanamycin); conditions: compound concentration that decreases geldanamycin binding by 50%
T1 construct: expression strains containing GST-Hsp90 N(9-236) plasmid (Addgene: 22481); host or cells: E. coli BL21(DE3)
Protocol: The compounds were tested for inhibition of HK autophosphorylation in vitro. Of the 24 derivatives, 6 inhibited in vitro autophosphorylation of E. coli EnvZ at a concentration of 2 mM. […] Each compound has similar IC50 values for PhoR and EnvZ, indicating good potential for polypharmacology. We discounted the notion that DPP-induced aggregation of HKs was the reason for inhibiting autophosphorylation using native gel protein electrophoresis of HK proteins with and without DPPs (data not shown). We also investigated if the four DPP inhibiting HK autophosphorylation would also bind to Hsp90α in a fluorescence polarization assay. In this assay, inhibitors were tested for their ability to displace FITC-labeled geldanamycin (a well-known Hsp90 inhibitor) from the ATP pocket ([40]). All the compounds tested displaced FITC-labeled geldanamycin with IC50s in the nM range (Table 2).
The Hsp90α […] domain was purified as described by Goode et al. ([57]). E. coli BL21(DE3) expression strains containing GST-Hsp90 N(9-236) plasmid (Addgene: 22481) were grown in 1 L LB media supplemented with 100 µg/mL ampicillin at 25°C and shaking (200 r.p.m.) to OD600 0.5, and protein expression was induced by the addition of 1 mM IPTG, and the culture was grown at 25°C and shaking (200 r.p.m.) overnight. Cells were then pelleted (4,000 g, 4°C), resuspended in 40 mL buffer A2 (50 mM Tris-HCl pH 8.0, 0.5 M NaCl, and 1 mM phenylmethanesulfonyl fluoride), sonicated (4°C, 5 min with pulses of 15 sec at intervals of 1 min), and centrifuged (11,000 g, 4°C, 60 min). Supernatant was passed through a 5-mL Glutathione Sepharose 4B (GE Healthcare) equilibrated with buffer A2 using an AKTA system (GE Healthcare). Column was washed using buffer A2, and a linear gradient of glutathione (0–0.25M) in buffer A2 was applied. Fractions containing Hsp90α were collected, mixed, and concentrated by ultrafiltration.
Competitive binding of inhibitors to Hsp90 was measured by fluorescence polarization assay as previously reported ([58]). Inhibitors were assayed in different concentrations (range 0–1,000 µM) in a Nunc black, low binding 384-well plate (Thermo Scientific). Each reaction was prepared in reaction mix (100 mM Tris-Cl, pH 7.4, 20 mM KCl, 6 mM MgCl2, 2 mM DTT, and 0.1 mg/mL bovine serum albumin) in a final volume of 50 µL containing 350 nM Hsp90 and 100 nM geldanamycin FITC labeled (BPS Bioscience, San Diego, CA, USA) and the inhibitor in the correspondent concentration. Blank control containing no enzyme and no geldanamycin, enzyme-positive control containing no inhibitor, and enzyme-negative control containing no Hsp90 were included. Fluorescence polarization was then measured using Tecan SPARK (Tecan, Grödig, Austria) at wavelengths λex = 485 nm and λem = 530 nm.

HEK293 cells = test: Cell imaging of HEK293 cells; type: cell-based; conditions: LC20, 24 hours exposure, 40× amplification
Protocol: HEK293 cells were plated in 24-well plates on exposure medium for 24 hours (500,000 cells/well). Cells were exposed to a subset of compounds at a lethal concentration of 20% (LC20). After 24 hours exposure, cells were fixed with 2% glutaraldehyde for 15 min, washed with water, permeabilized with 0.5% Triton-X, washed twice with water, and stained with Toluidine blue 0.3%. For 100× amplification, cells were harvested by pipetting up and down in 250 µL of exposure medium. Cells from three wells treated with the same compound were pooled and centrifuged for 5 min at 1,500 r.p.m. The cell pellet was fixed in 0.1 M cacodylate buffer containing 2% glutaraldehyde (vol/vol) (pH 7.4). After 1 hour on ice, the pellet was washed with 0.1 M cacodylate buffer and fixed in 0.1 M cacodylate buffer containing 1% osmium tetroxide (wt/vol). After a further hour on ice, the cell pellet was embedded in hard Epon and 1-µm slides were cut and stained with 1% toluidine blue and 1% borax (wt/vol). Cell abnormalities were assessed by microscopy using a Leica DM6B light microscope (Leica Microsystems B.V., Amsterdam, the Netherlands) at 100× magnification.

Haemolysis assay = type: cell-based, sheep; conditions: sheep, sheep red blood cells, 2% suspension; read-out: RBC hemolysis
Protocol: The hemolysis assay was adapted from the study by Evans et al. ([65]). Briefly, sheep RBC 10% washed pooled cells in PBS (Rockland Immunochemicals, Limerick, PA, USA) were diluted 1:5 to give a final concentration of 2% RBCs in PBS. […] A non-treated control, 1% DMSO (vehicle control), and complete cell lysis control (Triton-X 2%) were included in each assay. After exposure samples were centrifuged at 4°C at 1,000 g for 15 min and 100 µL of supernatant transferred to a clean well in a 96-well, clear, flat-bottom plate (Corning Incorporated). Released hemoglobin was measured by absorption at 540 nm using a Spectramax M5 plate reader. The experiments were performed in quadruplicate. The percentage of hemolysis was calculated as follows:
Hemolysis=A540nm,testcondition−A540nm,DMSOcontrol/A540nm,TritonXControl−A540nm,DMSOcontrol

## COc1ccc(-c2[nH]nc(C(F)(F)F)c2-c2ccc(Cl)cc2)c(O)c1 [DPP-6]
Hsp90α
  IC50: 798 nM
HEK293 cells
  Morphological changes of HEK293 cells: membrane blebbing
Haemolysis assay
  hemolysis at 30 min: 100%

## Oc1ccc(-c2n[nH]c(C(F)(F)F)c2-c2ccc(Cl)cc2)c(O)c1 [DPP-5]
Hsp90α
  IC50: 496 nM
HEK293 cells
  Morphological changes of HEK293 cells: membrane blebbing
Haemolysis assay
  hemolysis at 30 min: 100%

## COc1ccc(-c2c(C(F)(F)F)n[nH]c2-c2ccc(O)cc2O)cc1 [DPP-12]
Hsp90α
  IC50: 574 nM

## COc1ccc(-c2c(C(F)(F)F)n[nH]c2-c2ccc(OC)cc2O)cc1 [DPP-13]
Hsp90α
  IC50: 838 nM
